Test results published in publication PMC11662004 (Communications Chemistry, 2024).
Where “and” joins values, the source holds several entries; their conditions need not be identical. Identical values can stand only once.

How the values were obtained:
NgTet1 = target: T1, NgTet1 (Naegleria gruberi, UniProt D2W6T1); assay: biochemical; conditions: for normalised activity, %: AlphaScreen
T1 construct: His6-tagged full-length Naegleria gruberi NgTet1 (321 a. a.) protein with a thrombin cleavage site; made in house; host or cells: E. coli BL21(DE3)
T1 sequence (D2W6T1 1-321): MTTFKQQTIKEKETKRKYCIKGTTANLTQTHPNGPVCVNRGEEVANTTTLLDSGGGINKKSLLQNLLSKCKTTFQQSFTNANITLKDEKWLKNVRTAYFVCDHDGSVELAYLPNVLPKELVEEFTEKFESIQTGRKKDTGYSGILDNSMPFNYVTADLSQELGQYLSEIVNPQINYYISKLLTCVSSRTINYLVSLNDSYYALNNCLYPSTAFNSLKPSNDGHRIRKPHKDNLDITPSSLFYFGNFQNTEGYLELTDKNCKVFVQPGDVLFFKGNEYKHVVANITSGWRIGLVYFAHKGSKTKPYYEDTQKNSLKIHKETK
Description: (Fig. 5a), were screened for inhibitory activity against NgTet1.
Activity was normalised against reactions containing vehicle (DMSO). […] AS data shown as the mean of three experimental replicates (n = 3; mean ± SD); ^1H NMR data plotted from two independent replicates (n = 2); tabulated data reported as the mean of two and three independent replicates for ^1H NMR and AS, respectively (n = 2–3, SD reported for n = 3). N. d.: not determined; AS: AlphaScreen.
Compounds in DMSO (100 nL) were pre-dispensed in a logarithmically linear concentration gradient onto 384-well ProxiPlates using an Echo® 550 acoustic liquid handler (Labcyte). NgTet1 was pre-incubated with the inhibitor dilution series in DMSO at room temperature for 10 min. Reactions were initiated by the addition of appropriate cofactors and DNA. […] The reactions were quenched by the addition of 30 mM EDTA (pH 4.2), 358 mM NaCl (5 μL) within the enzyme linear activity window (determined in Fig. S10). Concurrently, a mixture containing the anti-^5hmC antibody (1:2000 dilution) and AlphaScreen beads (1:62.5 dilution) in assay buffer was prepared and incubated at room temperature for 30 min. The AlphaScreen bead/antibody mixture was added to the quenched NgTet1 reactions (5 μL), and the complete mixture was incubated at room temperature for 1 h. Chemiluminescence was measured on a PHERAstar FS/FSX (BMG Labtech) equipped with an AlphaScreen 680 570 module. All AlphaScreen bead manipulations were performed under subdued lighting. Inhibition data was normalised to reactions containing vehicle only (1% v/v DMSO) and fitted using “log(inhibitor) vs. response—Variable slope (four parameters)” non-linear regression model on GraphPad Prism 5.

TET2CDΔLCI = target: T2, TET2CDΔLCI (Homo sapiens, UniProt Q6N021); assay: Continuous reaction monitoring (1H NMR), 2OG decarboxylation; assay type: biochemical
T2 construct: FLAG-[thrombin cleavage site]-SUMO (N); made in house; host or cells: E. coli
Description: Double-stranded DNA oligomers were added at a final concentration of 20 µM. Data plotted from two independent replicates (n = 2). Initial rates reported as the mean of two independent replicates (n = 2). TEXT PRINTED IN THE PICTURE: (c) No DNA: V0 (μM min^−1) NgTet1: 0.36; V0 (μM min^−1) TET2: 1.28; Relative V0 NgTet1: 1; Relative V0 TET2: 1 | (c) ^5HC DNA: V0 (μM min^−1) NgTet1: 1.30; V0 (μM min^−1) TET2: 6.34; Relative V0 NgTet1: 3.6; Relative V0 TET2: 5.0 | (c) AT DNA: V0 (μM min^−1) NgTet1: 0.82; V0 (μM min^−1) TET2: 5.78; Relative V0 NgTet1: 2.3; Relative V0 TET2: 4.5 | (c) ^5mC DNA: V0 (μM min^−1) NgTet1: 1.52; V0 (μM min^−1) TET2: 6.79; Relative V0 NgTet1: 4.2; Relative V0 TET2: 5.3
All ^1H NMR spectra were recorded at 25 °C using D2O as a reference for internal deuterium lock on a Bruker Avance III 700 MHz equipped with an inverse TCI cryoprobe in 3 or 5 mm diameter tubes with a total sample volume of 160 or 565 μL, respectively. The water signal was reduced using Perfect Echo excitation sculpting suppression. Chemical shifts are reported in ppm relative to D2O (δH = 4.70 ppm).
Spectrometer settings were determined using a control sample containing all reaction components excluding enzyme. TET enzyme was added to an identical sample, and the resulting assay mixture was transferred to an NMR tube before deposition into the instrument. […] Data acquisition was started following a brief spectrometer setting optimisation (up to 200 s delay between enzyme addition and data acquisition); 8–32 scans were accumulated for a single spectrum, corresponding to 65–179 s of acquisition time. Spectrum recordings were carried out consecutively without delay. Data were processed using automated routines on MestReNova v14.2.0; signals of interest were integrated with absolute intensity scaling. ^1H NMR time courses reported in figures are representative results from two or three independent replicates.

In the case of `O=C(O)CNC(=O)C(=O)O` [NOG, N-oxalylglycine], the “normalised activity, %” value (NgTet1; -Log[inhibitor] (M) 3.30535) is reported as 27.0589% and 23.4073% and 23.5938%, the “normalised activity, %” value (NgTet1; -Log[inhibitor] (M) 3.82823) is reported as 54.6166% and 46.9965% and 50.3704% and the “normalised activity, %” value (NgTet1; -Log[inhibitor] (M) 4.30535) is reported as 72.1146% and 66.2321% and 78.0488%. The “normalised activity, %” value (NgTet1; -Log[inhibitor] (M) 4.90741) was 90.0386% and 80.363% and 83.4878%, the “normalised activity, %” value (NgTet1; -Log[inhibitor] (M) 5.39553) was 101.245% and 102.244% and 89.2336% and the “normalised activity, %” value (NgTet1; -Log[inhibitor] (M) 5.91841) was 103.288% and 99.259% and 97.2201%. For the same compound, the “normalised activity, %” value (NgTet1; -Log[inhibitor] (M) 6.39553) was 114.516% and 95.8112% and 105.039%, the “normalised activity, %” value (NgTet1; -Log[inhibitor] (M) 6.99759) was 113.992% and 95.1834% and 95.7883% and the “normalised activity, %” value (NgTet1; -Log[inhibitor] (M) 7.50947) was 110.682% and 100% and 109.028%. For the same compound, the “normalised activity, %” value (NgTet1; -Log[inhibitor] (M) 8.03235) was 108.192% and 91.8591% and 90.7491% and the IC50 (NgTet1; read-out: IC50, 5mC ssDNA, AS) was 200 µM.

With “AT DNA: double-stranded self-complementary 5'-ACC ACA TGT GGT-3', CpG replaced by ApT (DNA ACCACATGTGGT; DNA, backbone and methylation of C not given here; self-complementary duplex)” the “V0 TET2” value (TET2CDΔLCI; 20 µM DNA, 100 μM 2OG, 5 μM TET2CDΔLCI) was 5.78 µM/min, the “succinate” value (TET2CDΔLCI; n = 1, time (min) 5HC DNA 5.78333, AT DNA 5.73333, 5mC DNA 5.58333) was 39.5956 µM and the “succinate” value (TET2CDΔLCI; n = 1, time (min) 5HC DNA 8.86667, AT DNA 8.81667, 5mC DNA 8.65) was 49.5065 µM. The “succinate” value (TET2CDΔLCI; n = 1, time (min) 5HC DNA 11.95, AT DNA 11.8833, 5mC DNA 11.7333) was 54.2458 µM, the “succinate” value (TET2CDΔLCI; n = 1, time (min) 5HC DNA 15.0333, AT DNA 14.9667, 5mC DNA 14.8167) was 57.9674 µM and the “succinate” value (TET2CDΔLCI; n = 1, time (min) 5HC DNA 18.1167, AT DNA 18.05, 5mC DNA 17.9) was 59.2828 µM. The “succinate” value (TET2CDΔLCI; n = 1, time (min) 5HC DNA 21.2333, AT DNA 21.1333, 5mC DNA 21) was 62.1944 µM, the “succinate” value (TET2CDΔLCI; n = 1, time (min) 5HC DNA 24.3333, AT DNA 24.2167, 5mC DNA 24.0667) was 62.9572 µM and the “succinate” value (TET2CDΔLCI; n = 1, time (min) 5HC DNA 27.4167, AT DNA 27.3, 5mC DNA 27.15) was 64.7984 µM. The “succinate” value (TET2CDΔLCI; n = 1, time (min) 5HC DNA 30.55, AT DNA 30.3833, 5mC DNA 30.2333) was 64.7023 µM, the “succinate” value (TET2CDΔLCI; n = 1, time (min) 5HC DNA 33.65, AT DNA 33.4667, 5mC DNA 33.3167) was 65.163 µM and the “succinate” value (TET2CDΔLCI; n = 1, time (min) 5HC DNA 36.7333, AT DNA 36.5333, 5mC DNA 36.4) was 66.9776 µM. The “succinate” value (TET2CDΔLCI; n = 1, time (min) 5HC DNA 39.8333, AT DNA 39.6167, 5mC DNA 39.4833) was 66.6376 µM, the “succinate” value (TET2CDΔLCI; n = 1, time (min) 5HC DNA 42.9, AT DNA 42.7, 5mC DNA 42.5667) was 66.8738 µM and the “succinate” value (TET2CDΔLCI; n = 1, time (min) 5HC DNA 46, AT DNA 45.7833, 5mC DNA 45.6667) was 68.072 µM. The “succinate” value (TET2CDΔLCI; n = 1, time (min) 5HC DNA 49.0833, AT DNA 48.8667, 5mC DNA 48.75) was 67.0651 µM, the “succinate” value (TET2CDΔLCI; n = 1, time (min) 5HC DNA 52.1667, AT DNA 51.95, 5mC DNA 51.8333) was 67.7938 µM and the “succinate” value (TET2CDΔLCI; n = 1, time (min) 5HC DNA 55.25, AT DNA 55.0333, 5mC DNA 54.9167) was 69.134 µM. For the same compound, the “succinate” value (TET2CDΔLCI; n = 1, time (min) 5HC DNA 58.3167, AT DNA 58.1167, 5mC DNA 58) was 67.5356 µM, the “succinate” value (TET2CDΔLCI; n = 1, time (min) 5HC DNA 61.4, AT DNA 61.2667, 5mC DNA 61.1) was 68.2246 µM and the “succinate” value (TET2CDΔLCI; n = 2, time (min) 5HC DNA 5.66667, AT DNA 5.66667, 5mC DNA 5.8) was 40.358 µM. For the same compound, the “succinate” value (TET2CDΔLCI; n = 2, time (min) 5HC DNA 8.75, AT DNA 8.75, 5mC DNA 8.88333) was 49.4783 µM, the “succinate” value (TET2CDΔLCI; n = 2, time (min) 5HC DNA 11.8333, AT DNA 11.85, 5mC DNA 11.9667) was 54.4351 µM and the “succinate” value (TET2CDΔLCI; n = 2, time (min) 5HC DNA 14.9167, AT DNA 14.9333, 5mC DNA 15.05) was 56.62 µM. The “succinate” value (TET2CDΔLCI; n = 2, time (min) 5HC DNA 18.0167, AT DNA 18.0167, 5mC DNA 18.1167) was 59.0171 µM, the “succinate” value (TET2CDΔLCI; n = 2, time (min) 5HC DNA 21.1, AT DNA 21.1, 5mC DNA 21.2) was 60.9868 µM and the “succinate” value (TET2CDΔLCI; n = 2, time (min) 5HC DNA 24.1833, AT DNA 24.1667, 5mC DNA 24.2833) was 62.4531 µM. The “succinate” value (TET2CDΔLCI; n = 2, time (min) 5HC DNA 27.25, AT DNA 27.25, 5mC DNA 27.3667) was 63.5112 µM, the “succinate” value (TET2CDΔLCI; n = 2, time (min) 5HC DNA 30.3333, AT DNA 30.3333, 5mC DNA 30.45) was 64.7948 µM and the “succinate” value (TET2CDΔLCI; n = 2, time (min) 5HC DNA 33.4167, AT DNA 33.4167, 5mC DNA 33.5333) was 64.9179 µM. The “succinate” value (TET2CDΔLCI; n = 2, time (min) 5HC DNA 36.5, AT DNA 36.5, 5mC DNA 36.6167) was 65.839 µM, the “succinate” value (TET2CDΔLCI; n = 2, time (min) 5HC DNA 39.5833, AT DNA 39.5833, 5mC DNA 39.7) was 65.6357 µM and the “succinate” value (TET2CDΔLCI; n = 2, time (min) 5HC DNA 42.6667, AT DNA 42.6667, 5mC DNA 42.7833) was 67.3494 µM. For the same compound, the “succinate” value (TET2CDΔLCI; n = 2, time (min) 5HC DNA 45.75, AT DNA 45.75, 5mC DNA 45.8667) was 68.1347 µM, the “succinate” value (TET2CDΔLCI; n = 2, time (min) 5HC DNA 48.8333, AT DNA 48.8333, 5mC DNA 48.95) was 66.7934 µM and the “Relative V0 TET2” value (TET2CDΔLCI; relative to reactions without DNA) was 4.5.
